# Target: Estrogen receptor (Rattus norvegicus, UniProt P06211+Q62986)
# Experiment: not given
# Settings: not given
row,IC50,Compound
1,9.75 nM,Oc1ccc2c(c1)CC[C@H](c1ccccc1)[C@H]2c1ccc(OCCN2CCCC2)cc1
2,11.1 nM,Oc1ccc2c(c1)CC[C@H](c1ccccc1)[C@@H]2c1ccc(OCCN2CCCC2)cc1 (stereo in doubt; 9) [LASOFOXIFENE]
3,270 nM,Oc1ccc2c(c1)CC[C@@H](c1ccccc1)[C@H]2c1ccc(OCCN2CCCC2)cc1
4,11.3 nM,Oc1ccc2c(c1)CC[C@H](c1ccccc1)[C@@H]2c1ccc(OCCN2CCCC2)cc1 (stereo in doubt; 14) [LASOFOXIFENE]
5,47.1 nM,Oc1ccc2c(c1)CCC(c1ccccc1)=C2c1ccc(OCCN2CCCC2)cc1
6,132 nM,COc1ccc2c(c1)CCC(c1ccccc1)C2c1ccc(OCCN2CCCC2)cc1 (centres undefined)

row,Compound,IC50
1,COc1ccc2c(c1)CCC(c1ccccc1)=C2c1ccc(OCCN2CCCC2)cc1 [NAFOXIDINE],40.9 nM
2,Oc1ccc2c(c1)OC(c1ccc(OCCN3CCCC3)cc1)C(c1ccccc1)=C2 (centres undefined),11.1 nM

# Species: Rattus norvegicus
# Experiment: not given
# Settings: not given
row,Compound,ED50
1,O=C(c1ccc(OCCN2CCCCC2)cc1)c1c(-c2ccc(O)cc2)sc2cc(O)ccc12 [RALOXIFENE],500 µg/day/kg
2,Oc1ccc2c(c1)CC[C@@H](c1ccccc1)[C@H]2c1ccc(OCCN2CCCC2)cc1,>500 µg/day/kg
3,Oc1ccc2c(c1)CC[C@H](c1ccccc1)[C@@H]2c1ccc(OCCN2CCCC2)cc1 (stereo in doubt; 14) [LASOFOXIFENE],10 µg/day/kg
4,Oc1ccc2c(c1)OC(c1ccc(OCCN3CCCC3)cc1)C(c1ccccc1)=C2 (centres undefined),175 µg/day/kg

# Test system: not listed separately
# Experiment: in vivo
# Settings: rat, po
row,bioavailability,Compound
1,10%,O=C(c1ccc(OCCN2CCCCC2)cc1)c1c(-c2ccc(O)cc2)sc2cc(O)ccc12 [RALOXIFENE]

# Test system: not listed separately
# Experiment: Oral bioavailability in cynomolgus monkey.
# Assay type: ADME, organism-based, Macaca fascicularis
# Settings: in vivo
row,bioavailability,Compound
1,45%,Oc1ccc2c(c1)CC[C@H](c1ccccc1)[C@@H]2c1ccc(OCCN2CCCC2)cc1 (stereo in doubt; 14) [LASOFOXIFENE]

# Same assay, conditions: in vivo, read-out: Bioavailabiility
row,bioavailability,Compound
1,5%,O=C(c1ccc(OCCN2CCCCC2)cc1)c1c(-c2ccc(O)cc2)sc2cc(O)ccc12 [RALOXIFENE]

# Test system: not listed separately
# Experiment: Oral bioavailability in rat
# Assay type: ADME, organism-based
# Settings: in vivo
bioavailability,F,Compound
16%,–,Oc1ccc2c(c1)CC[C@H](c1ccccc1)[C@H]2c1ccc(OCCN2CCCC2)cc1
60%,–,Oc1ccc2c(c1)CC[C@H](c1ccccc1)[C@@H]2c1ccc(OCCN2CCCC2)cc1 (stereo in doubt; 9) [LASOFOXIFENE]
29%,–,Oc1ccc2c(c1)CC[C@@H](c1ccccc1)[C@H]2c1ccc(OCCN2CCCC2)cc1
–,62%,Oc1ccc2c(c1)CC[C@H](c1ccccc1)[C@@H]2c1ccc(OCCN2CCCC2)cc1 (stereo in doubt; 14) [LASOFOXIFENE]

Compound,bioavailability,F
Oc1ccc2c(c1)OC(c1ccc(OCCN3CCCC3)cc1)C(c1ccccc1)=C2 (centres undefined),27%,–

# Species: Rattus norvegicus
# Experiment: not given
# Settings: not given
# Remark: another data set of the same source
row,Compound,ED50
1,O=C(c1ccc(OCCN2CCCCC2)cc1)c1c(-c2ccc(O)cc2)sc2cc(O)ccc12 [RALOXIFENE],500 µg/day/kg
2,Oc1ccc2c(c1)CC[C@@H](c1ccccc1)[C@H]2c1ccc(OCCN2CCCC2)cc1,>500 µg/day/kg
3,Oc1ccc2c(c1)CC[C@H](c1ccccc1)[C@@H]2c1ccc(OCCN2CCCC2)cc1 (stereo in doubt; 14) [LASOFOXIFENE],<1 µg/day/kg
4,Oc1ccc2c(c1)OC(c1ccc(OCCN3CCCC3)cc1)C(c1ccccc1)=C2 (centres undefined),175 µg/day/kg
